Values after ≈ are worked out from the molar mass of the structure shown.
Tested on: sensitive Plutella strain
Assay: Control of sensitive Plutella strain
Format: in vivo
Conditions: 80% control, on average, read-out: concentration controlling the sensitive Plutella strain at 80%

SMILES: CNC(=O)c1cc(Cl)cc(C)c1NC(=O)c1cc(Br)nn1-c1ncccc1Cl [chlorantraniliprole]
- EC80: 0.25 µg/mL (≈ 0.517 µM)
